Experiments:
[1] = tested on: panel of 6 different strains of Staphylococcus aureus; test: Average MIC, NCCLS/CLSI guidelines using caMHB (Example 6); assay type: cell-based; conditions: average over 6 S. aureus strains, duplicate; MIC above 32 counted as 64; read after 18-24 hours at 37° C.
Experimental: A large number of antimicrobial peptides of the invention were tested against a panel of 6 different strains of Staphylococcus aureus listed below:
Staphylococcus aureus, ATCC29213, MSSA, NCCLS reference strain; Staphylococcus aureus, ATCC25923, MSSA, NCCLS reference strain; Staphylococcus aureus, ATCC29737, MSSA; Staphylococcus aureus, E33235, MSSA; Staphylococcus aureus, 698-01, MRSA ST5, Str, Kan, Oxa; Staphylococcus aureus, 566-03, MRSA ST80, Oxa, Tet, Fus, Kan.
The staphylococci were exposed to the following peptide concentrations: 32; 16; 8; 4; 2; 1; 0.5; 0.25; 0.13; […]; and 0.03 microgram/mL. All peptides were purified, HPLC quantified and the concentrated peptides (>160 micrograms/mL) were diluted to 160 micrograms/mL in peptide dilution buffer (0.1% BSA, 0.01% Acetic Acid).
The MIC determination was done essentially as described by NCCLS/CLSI guidelines using caMHB. The MICs were read after 18-24 hours of 37° C. incubations and recorded along with the CFU in the table below.
A total number of 95 antimicrobial peptides of the invention were evaluated in duplicate against the 6 bacterial strains described above.
In the majority of the double determinations (93%), the MIC varied <2 fold. An average MIC is tabulated below. If the MIC was above 32 micrograms/mL, a value of 64 was used to calculate the average.

[2] = tested on: Staphylococcus carnosus ATCC51365; test: Yeast screening assay: radial diffusion assay of yeast supernatants; assay type: cell-based; parameters: key: An activity of 3 is better than Plectasin; An activity of 2 corresponds to the activity of Plectasin; 1 is worse than Plectasin; conditions: yeast supernatant, clearing zone in radial diffusion assay
Summary of the method: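 Supernatants from S. cerevisiae expressing plectasin variants, grown 3 days at 30 °C in galactose medium, were applied to agarose containing 5×10^5 cfu/mL S. carnosus. Plates were incubated 3 h at 37 °C, overlaid, left overnight and MTT-stained. Clearing zones were scored as 2 = plectasin-like, 3 = better, 1 = worse.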

Substance	Average MIC [1] [micrograms/mL]	Activity (antimicrobial activity relative to the activity of plectasin) [2]
N17R + Y25R: antimicrobial peptide of the invention, Plectasin variant (GFGCNGPWDEDDMQCHRHCKSIKGRKGGYCAKGGFVCKCY)	18	–
N17A: antimicrobial peptide of the invention, Plectasin variant (GFGCNGPWDEDDMQCHAHCKSIKGYKGGYCAKGGFVCKCY) [Mutation N17A]	15	–
GFGCSGPWDEDDMQCHNHCKSIKGYKGGYCAKGGFVCKCY [Mutation N5S]	24	3
N17T: antimicrobial peptide of the invention, Plectasin variant (GFGCNGPWDEDDMQCHTHCKSIKGYKGGYCAKGGFVCKCY) [Mutation N17T]	21	–
GFGCNGPWVEDDMQCHNHCKSIKGYKGGYCAKGGFVCKCY [Mutation D9V]	30	3
GFGCNGPWDEDDMSCHNHCKSIKGYKGGYCAKGGFVCKCY [Mutation Q14S]	21	3
N5D + D9S + Q14R: antimicrobial peptide of the invention, Plectasin variant (GFGCDGPWSEDDMRCHNHCKSIKGYKGGYCAKGGFVCKCY)	16	–
GFGCNGPWDEDDTQCHNHCKSIKGYKGGYCAKGGFVCKCY [Mutation M13T]	26	2
GFGCNGPWDEGDMQCHNHCKSVKGYKGGYCAKGGFVCKCY [D11G + I22V]	17	3
M13A + Q14K + K26R: antimicrobial peptide of the invention, Plectasin variant (GFGCNGPWDEDDAKCHNHCKSIKGYRGGYCAKGGFVCKCY)	9	–
GFGCNGPWDEDDSQCHNHCKSIKGYKGGYCAKGGFVCKCY [Mutation M13S]	24	3
N5S + M13V + N17T: antimicrobial peptide of the invention, Plectasin variant (GFGCSGPWDEDDVQCHTHCKSIKGYKGGYCAKGGFVCKCY)	16	–
GFGCNGPWDEDDMGCHNHCKSIKGYKGGYCAKGGFVCKCY [Mutation Q14G]	18	3
N17S: antimicrobial peptide of the invention, Plectasin variant (GFGCNGPWDEDDMQCHSHCKSIKGYKGGYCAKGGFVCKCY) [Mutation N17S]	14	–
N5S + M13V + N17A: antimicrobial peptide of the invention, Plectasin variant (GFGCSGPWDEDDVQCHAHCKSIKGYKGGYCAKGGFVCKCY)	18	–
S21V: antimicrobial peptide of the invention, Plectasin variant (GFGCNGPWDEDDMQCHNHCKVIKGYKGGYCAKGGFVCKCY) [Mutation S21V]	26	–
GFGCNGPWDEDDMVCHNHCKSIKGYRGGYCAKGGFVCKCY [Q14V + K26R]	12	3
N5H + M13E + N17E: antimicrobial peptide of the invention, Plectasin variant (GFGCHGPWDEDDEQCHEHCKSIKGYKGGYCAKGGFVCKCY)	12	–

Substance	Average MIC [1] [micrograms/mL]	Activity (antimicrobial activity relative to the activity of plectasin) [2]
M13S + Q14K + K26R: antimicrobial peptide of the invention, Plectasin variant (GFGCNGPWDEDDSKCHNHCKSIKGYRGGYCAKGGFVCKCY; Synthetic antimicrobial polypeptide)	15	–
GFGCAGPWDEDDMQCHNHCKSIKGYKGGYCAKGGFVCKCY [Mutation N5A]	29	3
GFGCNGPWDEDDRQCHNHCKSIKGYKGGYCAKGGFVCKCY [Mutation M13R]	9	3
GFGCNGPWKEDDMQCHNHCKSIKGYKGGYCAKGGFVCKCY [Mutation D9K]	7	3
N5G + D9A + Q14S + K23T + A31T: antimicrobial peptide of the invention, Plectasin variant (GFGCGGPWAEDDMSCHNHCKSITGYKGGYCTKGGFVCKCY)	14	–
N17K: antimicrobial peptide of the invention, Plectasin variant (GFGCNGPWDEDDMQCHKHCKSIKGYKGGYCAKGGFVCKCY) [Mutation N17K]	11	–
N17K + K32R: antimicrobial peptide of the invention, Plectasin variant (GFGCNGPWDEDDMQCHKHCKSIKGYKGGYCARGGFVCKCY)	7	–
GFGCNGPWGEDDMQCHNHCKSIKGYKGGYCAKGGFVCKCY [Mutation D9G]	21	3
N5K + M13L: antimicrobial peptide of the invention, Plectasin variant (GFGCKGPWDEDDLQCHNHCKSIKGYKGGYCAKGGFVCKCY)	9	–
N17F: antimicrobial peptide of the invention, Plectasin variant (GFGCNGPWDEDDMQCHFHCKSIKGYKGGYCAKGGFVCKCY) [Mutation N17F]	12	–
GFGCNGPWDEDDMQCHSHCKSIRGYKGGYCAKGGFVCKCY [N17S + K23R]	14	2
D11G + N17I: antimicrobial peptide of the invention, Plectasin variant (GFGCNGPWDEGDMQCHIHCKSIKGYKGGYCAKGGFVCKCY)	16	–
M13R + Q14K + K26R: antimicrobial peptide of the invention, Plectasin variant (GFGCNGPWDEDDRKCHNHCKSIKGYRGGYCAKGGFVCKCY)	5	–
K26C + Y40YRCG: antimicrobial peptide of the invention, Plectasin variant (GFGCNGPWDEDDMQCHNHCKSIKGYCGGYCAKGGFVCKCYRCG)	11	–
N5G + M13W: antimicrobial peptide of the invention, Plectasin variant (GFGCGGPWDEDDWQCHNHCKSIKGYKGGYCAKGGFVCKCY)	9	–
S21A: antimicrobial peptide of the invention, Plectasin variant (GFGCNGPWDEDDMQCHNHCKAIKGYKGGYCAKGGFVCKCY) [Mutation S21A]	17	–
N5G + M13W + N17S: antimicrobial peptide of the invention, Plectasin variant (GFGCGGPWDEDDWQCHSHCKSIKGYKGGYCAKGGFVCKCY)	10	–
S21N: antimicrobial peptide of the invention, Plectasin variant (GFGCNGPWDEDDMQCHNHCKNIKGYKGGYCAKGGFVCKCY) [Mutation S21N]	11	–

From patent publication US20100120690A1, “Polypeptides Having Antimicrobial Activity and Polynucleotides Encoding Same” (Novozymes Adenium Biotech A/S, priority 2005, published 2010)
